Tests used:
Wnt signalling = test: Wnt-Luciferase Reporter Assay; format: cell-based; settings: DLD1-Wnt-Luc cells, 20-22 hours
Experimental: Wnt-Luciferase Reporter Assay
A Wnt dependent cell line (i.e., DLD1 colorectal adenocarcinoma cell line) was transduced with replication incompetent VSV-g pseudotyped lentiviral particles expressing the firefly luciferase gene under the control of minimal cytomegalovirus (mCMV) promoter and tandem repeats of the TCF/LEF transcriptional response element.
DLD1-Wnt-Luc cells were seeded (5000 cells/well) in a 96-well plate (Greiner Bio-One, cat. no. 655098) in Dubelco's Modified Eagle Medium (DMEM, SFBCO/Invitrogen, cat no. 41965-039) supplemented with Fetal Bovine Serum (FBS, 10%, SFBCO/Invitrogen, cat no. 10108-165). After overnight incubation, the media was replaced with OptiMEM (SFBCO/Invitrogen, cat no. 11058-021) supplemented with FBS (0.5%) and non-essential amino acids (1%, SFBCO/Invitrogen, cat no. 11140-035) and the appropriate putative TNKS inhibitor at a final concentration of 10 μM, 3 μM, 1 μM, 0.30 μM, 0.10 μM, 0.030 μM, 0.010 μM and 0 μM with 1% (v/v) final DMSO in double-triplicate wells. Positive control includes the use of XAV-939 (Maybridge, FisherScientific, 3,5,7,8-tetrahydro-2-[4-(trifluoromethyl)phenyl]-4H-thiopyrano[4,3-d]pyrimidin-4-one, cat. no. RF03920, see: Huang et al., Nature, 2009, Vol. 461, pp. 614-620). Cells were incubated for 20-22 hours before assaying for luciferase (first set of triplicates: Wnt activation) and viability (second set of triplicates: cell survival for data normalisation vs Wnt-activation) using ONE-Glo (Promega, cat. no. E6110) and CellTiter-Glo (Promega, cat. no. G7570) reagents consecutively. The assay was measured using a Victor^2 plate reader. The data were normalised to the DMSO control and were expressed as % Wnt activity as a function of inhibitor dose. Dose response curves used to determine IC50 values were Log transformed and analysed by non-linear regression analysis (variable slope) using Prism (GraphPad Software, Inc).

TNKS1 = molecular target: T1, TNKS1 (Homo sapiens, UniProt O95271, M1266I); test: TNKS1/PARP Biochemical Assay
T1 construct: expresses the active PARP domain of TNKS1 as a polyhistidine tagged protein; made in house; host or cells: E. coli Rosetta2(DE3)
T1 sequence (O95271 1112-1317 M1266I): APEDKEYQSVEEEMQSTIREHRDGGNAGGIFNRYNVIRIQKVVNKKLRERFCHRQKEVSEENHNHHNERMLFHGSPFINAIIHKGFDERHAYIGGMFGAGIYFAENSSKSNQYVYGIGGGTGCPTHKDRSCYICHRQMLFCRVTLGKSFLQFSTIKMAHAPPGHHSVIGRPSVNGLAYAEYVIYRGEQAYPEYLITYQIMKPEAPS
Experimental: TNKS1/PARP Biochemical Assay
Tankyrase activity was assayed using a 96-well format HT Universal Chemiluminescent PARP Assay Kit (Trevigen, Inc, cat. no. 4676-096-K) according to the manufacturer's instructions. In short, tankyrase/PARP activity is quantified by the incorporation of biotinylated nicotinamide adenine dinucleotide (biotin-NAD^+) onto the immobilised pseudo substrate, Histone. The extent of poly(Biotin-ADP)ribosylation (PARylation) in the presence of increasing dose of inhibitor is then quantified by binding of streptavidin conjugated horse radish peroxidase (strep-HRP) followed by chemiluminescent detection.
Prior to assay initiation, inhibitor stocks were prepared in aqueous DMSO (10% (v/v)) from 5 millimolar (mM) stock in 100% DMSO (Sigma Aldrich, cat. no. 265855) as 10× concentrations. For the primary assay (i.e., single dose at 1 micromolar (μM) final concentration) this corresponded to 10 μM in 10% DMSO. For IC50 determination, this corresponded to 100 μM, 30 μM, 10 μM, 3.0 μM, 1.0 μM, 0.30 μM, 0.10 μM and 0 μM in 10% DMSO for final concentrations of 10 μM, 3.0 μM, 1.0 μM, 0.30 μM, 0.10 μM, 0.030 μM, 0.010 μM, and 0 μM with 1% (v/v) final DMSO. The assay was initiated by the addition of 10× inhibitor (5 microliters (μL)) or 10% aqueous DMSO (5 μL) to triplicate wells. Twenty microliters of diluted TNKS1 protein (200 nanomolar (nM) final conc.) in PARP buffer (Trevigen, Inc, cat. no. 4671-096-02) was added to each histone coated well, which was previously hydrated with PARP buffer. Triplicate wells with 1% DMSO/buffer alone (no enzyme) were also added as a measure of assay ‘noise’. Positive control for PARP inhibition included the addition of 4-amino-1,8-naphthalimide (Sigma Aldrich, cat. no A0966) in corresponding doses.
The mixture was incubated for 10 minutes at room temperature and the PARylation reaction initiated by the addition of PARP cocktail (25 μL, Trevigen, Inc) containing biotin-NAD^+ (Trevigen, Inc, cat. no. 4670-500-01), activated DNA (Trevigen, Inc, cat. no. 4671-096-06) and PARP buffer. The reaction was incubated for 1.5 hours (for TNKS1) or 1 hour (for PARP1) at room temperature. The reaction mixture was then removed by aspiration and the wells washed (3×200 μL) with phosphate buffered saline containing Triton X-100 (0.1% (v/v), Sigma Aldrich cat. no. T8787). The wells were then washed (3×200 μL) with phosphate buffered saline and then incubated with strep-HRP (50 μL, Trevigen, Inc, cat. no. 4800-30-06) in strep-diluent (1:500 dilution, Trevigen Inc, cat. no. 4671-096-04) for 1 hour at room temperature. The Strep-HRP mixture was then aspirated and the wells washed (3×200 μL) with phosphate buffered saline containing Triton X-100 (0.1% (v/v)) followed by phosphate buffered saline (3×200 μL) and then incubated with PeroxyGlow™ reagent (100 μL, Trevigen, Inc, cat. nos. 4675-096-01, 4675-096-02, room temperature, mixed 1:1).
The amount of light emitted as a result of the peroxidase-chemiluminescent reagent reaction was in proportion to the extent of poly(Biotin-ADP)ribosylation and was immediately measured with a Victor^2 plate reader (Perkin Elmer, luminescence detection assay, luminescent units described as ‘Counts Per Second’ (CPS)). The data were normalised to the DMSO control after subtraction of ‘noise’ and was expressed as % PARP activity as a function of inhibitor dose. Inhibition was expressed as 100%−(% PARP activity). Dose response curves used to determine IC50 values were Log transformed and analysed by non-linear regression analysis (variable slope) using Prism (GraphPad Software, Inc) and were presented as IC50 with 95% confidence interval to determine relative potency.
Tankyrase1 (pNIC-Bsa4-TNKS1^PARP) expression construct was obtained from the Structural Genomics Consortium (SGC) and expresses the active PARP domain of TNKS1 as a polyhistidine tagged protein. […]

| IC50 (Wnt signalling) [nM] | IC50 (TNKS1) [nM] | SMILES |
| --- | --- | --- |
| < 300 | < 50 | CN1CCN(Cc2ccc(-c3cc4c(C#N)cccc4c(=O)[nH]3)cc2)CC1 [IQ-002, 3-[4-(4-Methyl-piperazin-1-ylmethyl)-phenyl]-1-oxo-1,2-dihydro-isoquinoline-5-carbonitrile] |
| < 300 | < 100 | CN1CCN(Cc2ccc(-c3cc4c(C#N)cc(F)cc4c(=O)[nH]3)cc2)CC1 [IQ-014] |
| < 300 | < 50 | CN(C)C1CCN(Cc2ccc(-c3cc4c(C#N)cccc4c(=O)[nH]3)cc2)CC1 [IQ-012] |
| < 300 | < 100 | CN(C)C1CCN(Cc2ccc(-c3cc4c(C#N)cccc4c(=O)[nH]3)cc2)C1 (centres unmarked) [IQ-011] |

From patent US9611223B2, “3-aryl-5-substituted-isoquinolin-1-one compounds and their therapeutic use” (INSTITUTE OF CANCER RESEARCH: ROYAL CANCER HOSPITAL (THE), priority 2013, dated 2017)
